The test system of data set [1] is RAW264.7. The data set can be described thus: Inhibition of LPS-stimulated ROS production in mouse RAW264.7 cells preincubated for 1 hr followed by LPS stimulation for 24 hrs measured after 30 mins by CMH2DCFDA probe-based fluorescence assay. The format is functional, cell-based.
Data set [2] concerns RAW264.7. The data set can be described thus: Cytotoxicity in mouse RAW264.7 cells assessed as cell viability after 24 hrs by MTS assay. The format is cell-based. The settings on record: raw264.7, 24 h.
A short description of data set [3]: Cytotoxicity in mouse RAW264.7 cells assessed as cell viability at 1 uM after 24 hrs by MTS assay. The format is cell-based. As to conditions: read-out: Activity. In general terms: Tetrazolium dyes change colour on reduction, which living cells bring about.
Data set [4] relates to RAW264.7. The data set can be described thus: Inhibition of LPS-stimulated ROS production in mouse RAW264.7 cells after 22 hrs by C-400 fluorescent dye-based assay. It counts as functional, cell-based. As to conditions: RAW264.7, 22 h.

Drawing on ChEMBL document CHEMBL3994635, “Inhibition of LPS-stimulated ROS production by fluorinated and hydroxylated chalcones in RAW 264.7 macrophages with structure-activity relationship study” (Bioorg Med Chem Lett, 2017), this text covers IC50, Activity and viability for 36 compounds.

A word on the IC50: it is the concentration at which inhibition is half-maximal. A low value points to greater potency. Consider `O=C(/C=C/c1ccccc1C(F)(F)F)c1ccccc1`, for which, in the data set with RAW264.7 [1], the IC50 was over 10 µM. In the data set on RAW264.7 [2], the Activity result is given as “Non-Toxic”. In the case of `O=C(/C=C/c1cccc(C(F)(F)F)c1)c1ccccc1`, in the data set with RAW264.7 [1], the IC50 is over 10 µM. Further, the Activity result with RAW264.7 [2] is given as “Non-Toxic”. The matching figures for `O=C(/C=C/c1ccc(C(F)(F)F)cc1)c1ccccc1`: over 10 µM and “Non-Toxic”. The matching figures for `O=C(/C=C/c1ccc(F)cc1)c1ccccc1O`: over 10 µM and “Non-Toxic”. As for `O=C(/C=C/c1ccccc1C(F)(F)F)c1ccccc1O`, the viability at 24 h, 1 µM in data set [3] is under 90%. For the compound `O=C(/C=C/c1ccccc1F)c1ccccc1O`, the IC50 in the data set on RAW264.7 [1] is over 10 µM. Also, in the data set on RAW264.7 [2], the Activity entry is reported as “Non-Toxic”. The matching figures for `O=C(/C=C/c1cccc(F)c1)c1ccccc1O`: over 10 µM and “Non-Toxic”. Taken in the same sequence, the figures for `O=C(/C=C/c1ccc(C(F)(F)F)cc1)c1ccccc1O` were over 10 µM and “Non-Toxic”. The matching figures for `O=C(/C=C/c1ccccc1C(F)(F)F)c1ccc(O)cc1`: over 10 µM and “Non-Toxic”. In the data set with RAW264.7 [1], `O=C(/C=C/c1cccc(F)c1)c1cccc(O)c1` came in with an IC50 of over 10 µM. For the same compound, the Activity entry in the data set with RAW264.7 [2] is recorded as “Non-Toxic”.

As to `O=C(/C=C/c1ccccc1OC(F)(F)F)c1cccc(O)c1`, in the data set on RAW264.7 [1], half-maximal inhibition (IC50) required 1.61 µM. Moreover, in the data set on RAW264.7 [2], the Activity entry is reported as “Non-Toxic”. On to `O=C(/C=C/c1ccc(OC(F)(F)F)cc1)c1cccc(O)c1`, for which the IC50 with RAW264.7 [1] was over 10 µM. Further, the Activity entry in the data set with RAW264.7 [2] is given as “Non-Toxic”. Taken in the same sequence, the figures for `O=C(/C=C/c1cccc(F)c1)c1ccc(O)cc1` were 9.15 µM and “Non-Toxic”. In the case of `O=C(/C=C/c1cccc(OC(F)(F)F)c1)c1ccccc1O`, the viability at 24 h, 1 µM in data set [3] was under 90%. Turning to `O=C(/C=C/c1cccc(C(F)(F)F)c1)c1ccccc1O`, the viability at 24 h, 1 µM in data set [3] is under 90%. In the data set with RAW264.7 [1], `O=C(/C=C/c1ccccc1OC(F)(F)F)c1ccccc1` had an IC50 of over 10 µM. Moreover, the Activity result with RAW264.7 [2] is listed as “Non-Toxic”. The matching figures for `O=C(/C=C/c1ccccc1F)c1cccc(O)c1`: over 10 µM and “Non-Toxic”. The matching figures for `O=C(/C=C/c1ccc(C(F)(F)F)cc1)c1cccc(O)c1`: over 10 µM and “Non-Toxic”.

In the case of `O=C(/C=C/c1ccccc1OC(F)(F)F)c1ccc(O)cc1`, half-maximal inhibition in the data set with RAW264.7 [1] (IC50) required 1.34 µM. In the data set with RAW264.7 [2], the Activity entry is on record as “Non-Toxic”. For the compound `O=C(/C=C/c1cccc(C(F)(F)F)c1)c1ccc(O)cc1`, it took 1.44 µM to reach half-maximal inhibition in the data set with RAW264.7 [1] (IC50). The Activity entry in the data set with RAW264.7 [2] is “Non-Toxic”. In turn, `O=C(/C=C/c1ccccc1F)c1ccccc1` came in with an IC50 in the data set with RAW264.7 [1] of over 10 µM. Besides, the Activity entry in the data set with RAW264.7 [2] is given as “Non-Toxic”.

Regarding `O=C(/C=C/c1ccccc1F)c1ccc(O)cc1`, in the data set with RAW264.7 [1], the IC50 was over 10 µM. Also, the Activity entry in the data set on RAW264.7 [2] is “Non-Toxic”. The matching figures for `O=C(/C=C/c1ccc(OC(F)(F)F)cc1)c1ccc(O)cc1`: over 10 µM and “Non-Toxic”. For the compound `O=C(/C=C/c1ccccc1OC(F)(F)F)c1ccccc1O`, the viability at 24 h, 1 µM in data set [3] was under 90%. On to `O=C(/C=C/c1ccc(OC(F)(F)F)cc1)c1ccccc1`, for which the IC50 in the data set with RAW264.7 [1] was over 10 µM. Besides, the Activity entry in the data set with RAW264.7 [2] is “Non-Toxic”. Consider `O=C(/C=C/c1cccc(C(F)(F)F)c1)c1cccc(O)c1`, for which the viability at 24 h, 1 µM in data set [3] was under 90%. In turn, `O=C(/C=C/c1ccc(F)cc1)c1cccc(O)c1` came in with an IC50 in the data set with RAW264.7 [1] of over 10 µM. For the same compound, the Activity result in the data set with RAW264.7 [2] is on record as “Non-Toxic”. Taken in the same sequence, the figures for `O=C(/C=C/c1cccc(OC(F)(F)F)c1)c1cccc(O)c1` were over 10 µM and “Non-Toxic”. Taken in the same sequence, the figures for `O=C(/C=C/c1cccc(F)c1)c1ccccc1` were over 10 µM and “Non-Toxic”.

`O=C(/C=C/c1cccc(OC(F)(F)F)c1)c1ccccc1` came in with an IC50 in the data set with RAW264.7 [1] of over 10 µM. In addition, in the data set with RAW264.7 [2], the Activity result was “Non-Toxic”. The matching figures for `O=C(/C=C/c1cccc(OC(F)(F)F)c1)c1ccc(O)cc1`: over 10 µM and “Non-Toxic”. Taken in the same sequence, the figures for `O=C(/C=C/c1ccccc1C(F)(F)F)c1cccc(O)c1` were over 10 µM and “Non-Toxic”. As to `O=C(/C=C/c1ccc(OC(F)(F)F)cc1)c1ccccc1O`, in the data set with RAW264.7 [1], the IC50 was over 10 µM. The Activity result with RAW264.7 [2] is listed as “Non-Toxic”. The matching figures for `O=C(/C=C/c1ccc(C(F)(F)F)cc1)c1ccc(O)cc1`: over 10 µM and “Non-Toxic”.

In the case of `O=C(/C=C/c1ccc(F)cc1)c1ccc(O)cc1`, the IC50 with RAW264.7 [1] was over 10 µM. Also, the Activity entry with RAW264.7 [2] is “Non-Toxic”.

In the data set on RAW264.7 [4], `COc1cc(-c2[o+]c3cc(O)cc(O)c3cc2O)cc(OC)c1O` [MALVIDIN CHLORIDE] gave an IC50 of 9 µM. This lies in the single-digit micromolar range.
